In series [1] the test system is RPS11 KO SNB19 cells. Put plainly: Viability assay, RPS11 KO cells. The class given is cell-based, human. The note with it: 5 μM, 72 hrs. The procedure: (§1) Single gene editing. To edit FANCB and RPS11, we used single guide RNAs that were enriched for both genes as well as the non-targeting controls. Briefly, these guides were synthesized by Synthego and following the protocol, we prepared the ribonucleoprotein complexes by mixing the guides (180 pmol) with recombinant Cas9 protein (Synthego) 20 pmol in […]. The complexes were allowed to form at room temp for 15 mins, and then […] of Opti-MEM I reduced serum medium and […] of lipofectamine Cas9 plus reagent were then added. Both, the cells and the formed ribonucleoprotein complexes, were seeded at the same time with 150,000 SNB19 cells in a T25 flask. The cells were incubated for 4 days.
(§2) Viability assay. […] Titre glo was added following incubation with drugs. (Cat No: G7572) and the viability of cells was analyzed 5 min later by measuring the luminescence. We normalized the intensity against DMSO treated cells of each cell line or PDX or the edited cell and then determined the survival. Pictures of these cells were also taken as shown in the source data figures.

For series [2], the system named is FANCB KO SNB19 cells. Description: Viability assay, FANCB KO cells. The class given is cell-based, human. Particulars: 5 μM, 72 hrs. The procedure:
as §1, §2

Series [3] has as its system SNB19. Description: Viability assay (Titre glo), susceptible glioma cell line. The class given is cell-based, human. Particulars: etoposide 5 μM, 72 hrs. The procedure:
as §2

Series [4] relates to resistant glioma cell lines. Description: Viability assay, resistant glioma cell lines. It is filed as cell-based, human. Particulars: etoposide 5 μM, 72 hrs. The procedure: as §2
The subject of series [5] is SNB19 cells. Description: Genome-wide CRISPR KO screen, etoposide selection. Particulars: etoposide 5 μM, 14 days, CRISPR KO library SNB19 cells. The class given is cell-based, human.
Procedure: Large scale cell culture and expansion. To perform the CRISPR screening, SNB19 cells were expanded to 500 million and then spinfected with 70,000sgRNA. After spinfection, the cells are selected with 0.6 μg/ml of puromycin for 4 days. This selection is aimed at the cells that have been rightly integrated with the sgRNA that incorporates the puromycin cassette into their genome. […] We used 50 million of selected cells for the extraction of genomic DNA. The base sgRNA representation is obtained by amplification of the sgRNA with unique barcoded primers. The remaining 100 million cells were expanded for 2 days, once cells grew to 200 million. […] After 14 days, the cells were harvested, the gDNA extracted, and the sgRNA amplified with another unique barcoded primer.
The test system of series [6] is GBM12. Put plainly: Etoposide dose-response viability. It is filed as cell-based, human. Particulars: GBM12, dose-response in vitro 72 hrs. The procedure: as §2
Series [7] deals with GBM43. Put plainly: Etoposide dose-response viability. The note with it: GBM43, dose-response in vitro 72 hrs. It is filed as cell-based, human. The procedure: as §2
Series [8] has as its system GBM6. Description: Etoposide dose-response viability. The class given is cell-based, human. Particulars: GBM6, dose-response in vitro 72 hrs. The procedure:
as §2

Series [9] concerns MES83. Put plainly: Etoposide dose-response viability. The class given is cell-based, human. Particulars: MES83, dose-response in vitro 72 hrs. The procedure:
as §2

Series [10] concerns U251. Description: Etoposide dose-response viability. The note with it: U251, dose-response in vitro 72 hrs. It is filed as cell-based, human. The procedure:
as §2

The subject of series [11] is SNB19. Put plainly: Click-it Plus OPP nascent protein synthesis. It is filed as cell-based, human. The note with it: SNB19, 5 μM, 24 hrs. The procedure: (§3) Click-it Plus OPP Assay, Apoptosis Assay and Flow Cytometry. To determine if nascent protein synthesis is impaired upon editing of RPS11 and FANCB. We seeded edited cells SgRPS11, SgFANCB, wild type SNB19 and the non-targeting controls in a 96 well plate with black covers overnight at 4,000 cells/well. […] Following the protocol from Life technologies (Cat No: C10456), we added the Click-it OPP (1:1000), or Caspase 3/7 (Cat no: C10427) or with antibodies against BID, BCL2 or APAF1 for 30 mins. After washing cells were fixed and primary antibodies were detected secondary antibodies conjugated to Alexa Flour 488. The fluorophore intensity was measured by flow cytometry (LSR Fortessa 1 analyzer). As a complementary approach, the labelled cells were also imaged in a fluorescent microscope (Nikon Ti2 Widefield).

The test system of series [12] is U251. Description: Click-it Plus OPP nascent protein synthesis. The class given is cell-based, human. The note with it: U251, 5 μM, 24 hrs.
Series [13] concerns GBM6. Description: Click-it Plus OPP nascent protein synthesis. The class given is cell-based, human. The note with it: GBM6, 5 μM, 24 hrs.
Series [14] has as its system GBM12. Put plainly: Click-it Plus OPP nascent protein synthesis. The class given is cell-based, human. Particulars: GBM12, 5 μM, 24 hrs.
The test system of series [15] is APAF1, RPS11 KO cells. Put plainly: APAF1 expression (qRT-PCR, Western blot). The class given is cell-based, human. The procedure:
(§4) Western blot. […] The cells were lysed using water bath ultrasonicator for 4 mins. Cell lysate were cleared by centrifugation. We measured the concentration of protein in lysates. Denatured lysates were loaded into 4-20% Tris-glycine gels (Novex) and separated at 180V for 2 hrs. The gels were transferred unto a PVDF membrane by semi-dry blotting for 1 hr. We blocked the membrane in 5% non-fat milk TBST buffer for 30 mins and incubated with primary antibodies RPS11 (1:500), FANCB (1:500), GAPDH or ACTB (1:1500) in 5% BSA respectively over night shaking at 4° C. Primary antibodies were removed and we added the secondary polyclonal HRP (1:20,000) in TBST and incubated shaking for 2 hrs at room temp. The membrane were washed 6× in TBST and then developed with ECL (Cat No: 1705061) and band imaged on a Bio-Rad Chemi-doc imaging system. qRT-PCR. […] The total RNA was extracted using Zymo Research kit (Direct-zol RNA Miniprep Plus, Cat no: R2070). The quality of the RNA was determined by RNA pico bioanalyzer measuring the 18S and 28S ribosome. Using the superscript III first strand synthesis system (Cat no: 18080-051), we generated cDNA and performed qPCR with APAF1 and ACTB primers in triplicates and fold change of expression of APAF1 were normalized against actin B (ACTB).
(In general: Real-time PCR tracks product formation cycle by cycle.)

Series [16] concerns APAF1, SNB19 WT and non-targeting control cells. Description: APAF1 expression (qRT-PCR, Western blot). The class given is cell-based, human. The procedure:
as §4

Series [17] has as its system BCL2, GBM6. Description: BCL2 expression by flow cytometry. Particulars: GBM6, 24 hrs. It is filed as cell-based, human.
Series [18] deals with BCL2, GBM12. Description: BCL2 expression by flow cytometry. It is filed as cell-based, human. Particulars: GBM12, 24 hrs. The procedure: as §3
(In general: In flow cytometry, cells or beads pass a laser one at a time.)

Series [19] relates to BID, susceptible glioma cells. Description: BID expression by flow cytometry. The class given is cell-based, human. The note with it: susceptible glioma cells compared to resistant cells, 24 hrs. The procedure:
as §3

For series [20] the following is noted: gliomas and brain metastases, systemic administration, human; cited from earlier work.

On to `COc1cccc2c1C(=O)c1c(O)c3c(c(O)c1C2=O)C[C@@](O)(C(=O)CO)C[C@@H]3O[C@H]1C[C@H](N)[C@H](O)[C@H](C)O1` [doxorubicin], for which the “susceptibility (viability)” value in [1] was “resistant”; in [2] it was “acquired resistance”.
In series [3], `COc1cc([C@@H]2c3cc4c(cc3[C@@H](O[C@@H]3O[C@@H]5CO[C@@H](C)O[C@H]5[C@H](O)[C@H]3O)[C@H]3COC(=O)[C@H]23)OCO4)cc(OC)c1O` [etoposide] returned a cells death of 80%. Also, the cell death entry in series [4] is given as “minimal cell death”. Besides, the cells surviving treatment result in series [5] is “less than 1%”. For the same compound, the “susceptibility (viability)” value in [1] is on record as “resistant”; in [2], “acquired resistance”. Moreover, the susceptibility to etoposide entry in [6] is “resistance”; in [7], “less sensitive”; in series [8] it was “resistance”; in series [9], “susceptible”; in series [10] it was “susceptible”. Also, the “nascent proteins following etoposide treatment” value in [11] is “decrease in nascent proteins”; in [12], “decrease in nascent proteins”; in [13], “no decrease in nascent proteins”; in series [14], “no decrease in nascent proteins”. Besides, the “APAF1 protein following etoposide treatment” value in series [15] is “decrease”. For the same compound, the “APAF1 transcript following etoposide treatment” value in [15] (24 hrs) is reported as “no significant expression changes”; in series [16] (SNB19 WT and non-targeting control cells, 24 hrs), “significant induction”. Also, in [16] (SNB19 wild-type and non-targeting control cells), the “APAF1 protein levels following etoposide treatment” value is recorded as “increased”. Also, the “BCL2 expression following etoposide treatment” value in series [17] and in [18] was “increase” each time. In [19], the “BID expression following etoposide treatment” value was “increased BID expression”. Also, the “intratumoral concentration in tumor tissue” value in series [20] is 2 to 6 µM.

The values are drawn from US20220152071A1, “MARKERS OF EFFICACY OF TOPOISOMERASE POISONS” (Northwestern University, priority 2019, published 2022).
